Patent US20230150974A1 (Foghorn Therapeutics Inc., priority 2020, published 2023)

Assays:
HiBit-BRG1 = biological target: T1, HiBit-BRG1 (Homo sapiens, UniProt P51532); test: HiBit-BRG1 cell-based degradation assay (Nano-Glo HiBiT Lytic Detection); settings: HeLa cells expressing HiBit-BRG1 and LgBit, 24 h; for DC50: read-out: BRG1 HiBit Degradation IC50; for Dmax: read-out: BRG1 HiBit Degradation Maximum (%)
T1 construct: expressed in transfected cells
Method in brief: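 Seed 5000 HeLa HiBit-BRG1/LgBit cells per well; treat 24 h; equilibrate 15 min at room temperature; add Nano-Glo HiBiT lytic reagent, shake 10 min, read luminescence. Percent degradation is scaled between DMSO and 2 μM reference degrader wells.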

HiBiT-BRM = biological target: T2, HiBiT-BRM (Homo sapiens, UniProt P51531); test: HiBiT-BRM cell-based degradation assay (Nano-Glo HiBiT Lytic Detection); settings: HeLa cells expressing HiBiT-BRM, 24 h; for DC50: read-out: BRM HiBit Degradation IC50
T2 construct: expressed in transfected cells
Method in brief: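 Luminescence from HiBiT–LgBiT complementation in lysates of a stable HiBiT-BRM HeLa line measured after 24 h compound exposure. Degradation expressed as percent relative to DMSO-treated cells and cells given 2 μM of a known BRM/BRG1 degrader.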

T1 sequence (P51532 whole entry): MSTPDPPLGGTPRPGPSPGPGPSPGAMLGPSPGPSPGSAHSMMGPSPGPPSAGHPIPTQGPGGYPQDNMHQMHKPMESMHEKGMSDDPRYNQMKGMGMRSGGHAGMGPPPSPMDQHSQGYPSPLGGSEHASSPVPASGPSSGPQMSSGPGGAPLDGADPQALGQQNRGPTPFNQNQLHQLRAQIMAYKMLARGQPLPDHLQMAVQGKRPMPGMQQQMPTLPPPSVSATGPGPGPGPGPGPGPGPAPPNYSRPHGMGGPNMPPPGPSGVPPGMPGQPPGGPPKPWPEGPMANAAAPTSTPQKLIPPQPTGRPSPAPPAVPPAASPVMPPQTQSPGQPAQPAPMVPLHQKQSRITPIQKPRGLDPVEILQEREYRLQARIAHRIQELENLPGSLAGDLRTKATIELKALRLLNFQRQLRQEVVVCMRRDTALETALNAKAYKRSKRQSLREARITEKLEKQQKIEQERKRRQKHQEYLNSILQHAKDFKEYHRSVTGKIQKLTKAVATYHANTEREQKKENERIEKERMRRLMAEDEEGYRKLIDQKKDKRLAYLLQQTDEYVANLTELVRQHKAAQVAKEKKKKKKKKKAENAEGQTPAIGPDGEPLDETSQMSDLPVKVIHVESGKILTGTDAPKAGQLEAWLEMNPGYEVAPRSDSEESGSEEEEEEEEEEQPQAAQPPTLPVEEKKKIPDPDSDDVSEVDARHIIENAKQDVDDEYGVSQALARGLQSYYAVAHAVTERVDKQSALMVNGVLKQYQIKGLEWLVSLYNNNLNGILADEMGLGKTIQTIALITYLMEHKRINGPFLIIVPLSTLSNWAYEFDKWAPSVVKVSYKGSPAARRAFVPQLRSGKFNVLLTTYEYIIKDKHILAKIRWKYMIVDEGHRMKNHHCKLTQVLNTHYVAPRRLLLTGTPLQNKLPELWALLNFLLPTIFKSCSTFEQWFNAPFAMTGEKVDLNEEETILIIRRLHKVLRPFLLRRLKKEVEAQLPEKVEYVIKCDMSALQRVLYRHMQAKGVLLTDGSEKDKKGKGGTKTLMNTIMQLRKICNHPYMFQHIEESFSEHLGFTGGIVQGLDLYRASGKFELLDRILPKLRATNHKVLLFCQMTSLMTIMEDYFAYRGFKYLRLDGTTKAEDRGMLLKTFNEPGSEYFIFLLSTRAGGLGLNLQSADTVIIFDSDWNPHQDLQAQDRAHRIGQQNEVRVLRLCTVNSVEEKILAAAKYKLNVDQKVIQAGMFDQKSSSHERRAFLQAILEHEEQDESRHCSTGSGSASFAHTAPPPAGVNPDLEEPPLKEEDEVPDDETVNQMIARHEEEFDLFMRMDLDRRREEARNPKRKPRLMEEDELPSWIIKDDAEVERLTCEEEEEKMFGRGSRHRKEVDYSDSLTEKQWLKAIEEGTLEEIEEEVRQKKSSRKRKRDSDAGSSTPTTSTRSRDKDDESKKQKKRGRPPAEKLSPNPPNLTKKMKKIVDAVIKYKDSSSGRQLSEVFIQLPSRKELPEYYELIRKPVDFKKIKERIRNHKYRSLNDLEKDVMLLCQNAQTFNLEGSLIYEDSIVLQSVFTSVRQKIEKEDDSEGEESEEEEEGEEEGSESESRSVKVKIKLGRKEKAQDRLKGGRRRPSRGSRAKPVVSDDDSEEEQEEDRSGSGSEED
T2 sequence (P51531 whole entry): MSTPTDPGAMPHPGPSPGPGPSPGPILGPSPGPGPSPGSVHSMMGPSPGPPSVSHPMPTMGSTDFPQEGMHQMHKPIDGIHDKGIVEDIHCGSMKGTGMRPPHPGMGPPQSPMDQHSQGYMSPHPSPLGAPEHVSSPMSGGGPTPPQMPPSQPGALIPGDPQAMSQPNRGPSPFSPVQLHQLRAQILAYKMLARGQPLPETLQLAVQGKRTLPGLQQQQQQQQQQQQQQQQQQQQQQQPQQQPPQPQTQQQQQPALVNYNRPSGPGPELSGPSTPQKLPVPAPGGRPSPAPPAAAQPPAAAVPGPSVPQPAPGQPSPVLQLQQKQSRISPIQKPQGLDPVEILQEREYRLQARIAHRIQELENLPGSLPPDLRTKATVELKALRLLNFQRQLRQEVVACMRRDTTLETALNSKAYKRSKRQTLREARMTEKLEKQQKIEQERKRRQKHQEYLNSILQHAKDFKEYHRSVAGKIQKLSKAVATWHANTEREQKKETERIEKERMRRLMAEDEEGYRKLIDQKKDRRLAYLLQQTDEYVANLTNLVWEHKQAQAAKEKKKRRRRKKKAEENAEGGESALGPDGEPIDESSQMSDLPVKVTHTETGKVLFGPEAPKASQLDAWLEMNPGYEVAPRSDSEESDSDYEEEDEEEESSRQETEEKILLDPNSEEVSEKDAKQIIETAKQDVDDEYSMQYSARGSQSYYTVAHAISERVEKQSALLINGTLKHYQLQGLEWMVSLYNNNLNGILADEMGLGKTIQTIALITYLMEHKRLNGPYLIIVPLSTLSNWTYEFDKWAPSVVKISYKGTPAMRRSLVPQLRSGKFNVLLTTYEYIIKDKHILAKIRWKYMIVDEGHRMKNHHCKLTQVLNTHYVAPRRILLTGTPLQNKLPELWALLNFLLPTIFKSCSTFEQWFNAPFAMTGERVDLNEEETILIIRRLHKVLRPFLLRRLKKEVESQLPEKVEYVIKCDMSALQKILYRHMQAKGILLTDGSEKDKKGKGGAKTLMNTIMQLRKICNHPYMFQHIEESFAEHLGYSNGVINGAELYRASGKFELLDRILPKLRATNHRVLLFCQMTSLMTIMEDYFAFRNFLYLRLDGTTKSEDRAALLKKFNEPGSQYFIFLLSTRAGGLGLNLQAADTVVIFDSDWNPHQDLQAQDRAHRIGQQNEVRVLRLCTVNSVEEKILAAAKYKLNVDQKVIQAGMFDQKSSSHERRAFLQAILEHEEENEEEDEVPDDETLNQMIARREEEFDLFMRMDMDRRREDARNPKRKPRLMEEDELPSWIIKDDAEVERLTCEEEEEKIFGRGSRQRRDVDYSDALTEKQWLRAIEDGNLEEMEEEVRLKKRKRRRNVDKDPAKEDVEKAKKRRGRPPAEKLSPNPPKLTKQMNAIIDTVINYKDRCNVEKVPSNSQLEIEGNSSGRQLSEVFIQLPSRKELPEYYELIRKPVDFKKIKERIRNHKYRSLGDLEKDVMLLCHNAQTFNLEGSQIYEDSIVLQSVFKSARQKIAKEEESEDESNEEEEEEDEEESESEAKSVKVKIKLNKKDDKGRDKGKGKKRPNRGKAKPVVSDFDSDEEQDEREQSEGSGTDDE

Row | DC50 (HiBit-BRG1) | Dmax (HiBit-BRG1) | DC50 (HiBiT-BRM) | Compound | BRM HiBit Degradation Maximum (%) (HiBiT-BRM)
1 | > 1 µM | < 50% | > 0.01 µM | Cc1ncsc1-c1ccc([C@H](C)NC(=O)[C@@H]2C[C@@H](O)CN2C(=O)[C@@H](c2cc(OCCNCCCCCCCCCCC(=O)NCc3ccc(CCOc4cc(-c5ccccc5O)nnc4N)cc3)no2)C(C)C)cc1 [Compound 212, (2S,4R)-1-[(2R)-2-[3-(2-[[10-([[4-(2-[[3-amino-6-(2-hydroxyphenyl)pyridazin-4-yl]oxy]ethyl)phenyl]methyl]carbamoyl)decyl]amino]ethoxy)-1,2-oxazol-5-yl]-3-methylbutanoyl]-4-hydroxy-N-[(1S)-1-[4-(4-methyl-1,3-thiazol-5-yl)phenyl]ethyl]pyrrolidine-2-carboxamide] | A (“A” indicates maximum degradation ≥75%)
2 | > 1 µM | > 75% | > 0.1 µM | Cc1ncsc1-c1ccc([C@H](C)NC(=O)[C@@H]2C[C@@H](O)CN2C(=O)[C@@H](c2cc(OCCN3CC4(C3)CN(CC(=O)NCc3ccc(CCOc5cc(-c6ccccc6O)nnc5N)cc3)C4)no2)C(C)C)cc1 [Compound 191, (2S,4R)-1-[(2R)-2-[3-(2-[6-[([[4-(2-[[3-amino-6-(2-hydroxyphenyl)pyridazin-4-yl]oxy]ethyl)phenyl]methyl]carbamoyl)methyl]-2,6-diazaspiro[3.3]heptan-2-yl]ethoxy)-1,2-oxazol-5-yl]-3-methylbutanoyl]-4-hydroxy-N-[(1S)-1-[4-(4-methyl-1,3-thiazol-5-yl)phenyl]ethyl]pyrrolidine-2-carboxamide] | A (“A” indicates maximum degradation ≥75%)
3 | > 1 µM | < 50% | > 1 µM | Nc1nnc(-c2ccccc2O)cc1NCCc1ccc(CNCCN2CCN(c3cccc4c3C(=O)N(C3CCC(=O)NC3=O)C4=O)CC2)cc1 (stereo not shown) [Compound 166, 4-(4-(2-((4-(2-((3-amino-6-(2-hydroxyphenyl)pyridazin-4-yl)amino)ethyl)benzyl)amino)ethyl)piperazin-1-yl)-2-(2,6-dioxopiperidin-3-yl)isoindoline-1,3-dione] | C (“C” indicates maximum degradation <50%)
4 | > 1 µM | < 50% | > 1 µM | Cc1ncsc1-c1ccc(CNC(=O)[C@@H]2C[C@@H](O)CN2C(=O)[C@@H](NC(=O)CCN2C[C@@H]3[C@H](C2)[C@H]3C(=O)NCc2ccc(CCOc3cc(-c4ccccc4O)nnc3N)cc2)C(C)(C)C)cc1 [Compound 184, (1R,5S,6S)-N-[[4-(2-[[3-amino-6-(2-hydroxyphenyl)pyridazin-4-yl]oxy]ethyl)phenyl]methyl]-3-(2-[[(2S)-1-[(2S,4R)-4-hydroxy-2-([[4-(4-methyl-1,3-thiazol-5-yl)phenyl]methyl]carbamoyl)pyrrolidin-1-yl]-3,3-dimethyl-1-oxobutan-2-yl]carbamoyl]ethyl)-3-azabicyclo[3.1.0]hexane-6-carboxamide] | B (“B” indicates maximum degradation ≥50%)
5 | > 0.1 µM | > 75% | > 0.01 µM | Cc1ncsc1-c1ccc([C@H](C)NC(=O)[C@@H]2C[C@@H](O)CN2C(=O)[C@@H](c2cc(OCCN3CCC4(CC3)CC(C(=O)NCc3ccc(CCOc5cc(-c6ccccc6O)nnc5N)cc3)C4)no2)C(C)C)cc1 [Compound 195, N-(4-(2-((3-amino-6-(2-hydroxyphenyl)pyridazin-4-yl)oxy)ethyl)benzyl)-7-(2-((5-((R)-1-((2S,4R)-4-hydroxy-2-(((S)-1-(4-(4-methylthiazol-5-yl)phenyl)ethyl)carbamoyl)pyrrolidin-1-yl)-3-methyl-1-oxobutan-2-yl)isoxazol-3-yl)oxy)ethyl)-7-azaspiro[3.5]nonane-2-carboxamide] | A (“A” indicates maximum degradation ≥75%)
6 | > 1 µM | < 50% | > 1 µM | Nc1nnc(-c2ccccc2O)cc1OCCc1ccc(C(=O)N2CCC(C3CCN(C(=O)COc4cccc5c4C(=O)N(C4CCC(=O)NC4=O)C5=O)CC3)CC2)cc1 (stereo not shown) [Compound 49, 4-(2-(1′-(4-(2-((3-amino-6-(2-hydroxyphenyl)pyridazin-4-yl)oxy)ethyl)benzoyl)-[4,4′-bipiperidin]-1-yl)-2-oxoethoxy)-2-(2,6-dioxopiperidin-3-yl)isoindoline-1,3-dione] | C (“C” indicates maximum degradation <50%)
7 | > 1 µM | > 50% | > 1 µM | Nc1nnc(-c2ccccc2O)cc1N1CCN(CC(=O)NCCCCCNc2ccc3c(c2)C(=O)N(C2CCC(=O)NC2=O)C3=O)CC1 (stereo not shown) [Compound 87, 2-[4-[3-amino-6-(2-hydroxyphenyl)pyridazin-4-yl]piperazin-1-yl]-N-(5-[[2-(2,6-dioxopiperidin-3-yl)-1,3-dioxo-2,3-dihydro-1H-isoindol-5-yl]amino]pentyl)acetamide; formic acid] | B (“B” indicates maximum degradation ≥50%)
8 | > 1 µM | < 50% | > 1 µM | Nc1nnc(-c2ccccc2O)cc1NCCc1ccc(CNC(=O)CCCCNc2cccc3nnn(C4CCC(=O)NC4=O)c(=O)c23)cc1 (stereo not shown) [Compound 141, N-(4-(2-((3-amino-6-(2-hydroxyphenyl)pyridazin-4-yl)amino)ethyl)benzyl)-5-((3-(2,6-dioxopiperidin-3-yl)-4-oxo-3,4-dihydrobenzo[d][1,2,3]triazin-5-yl)amino)pentanamide] | C (“C” indicates maximum degradation <50%)
9 | > 1 µM | < 50% | > 1 µM | Nc1nnc(-c2ccccc2O)cc1OCCc1ccc(C(=O)NCCCCCNc2ccc3c(c2)C(=O)N(C2CCC(=O)NC2=O)C3=O)cc1 (stereo not shown) [Compound 51, 4-(2-[[3-amino-6-(2-hydroxyphenyl)pyridazin-4-yl]oxy]ethyl)-N-(5-[[2-(2,6-dioxopiperidin-3-yl)-1,3-dioxoisoindol-5-yl]amino]pentyl)benzamide] | C (“C” indicates maximum degradation <50%)
10 | > 1 µM | < 50% | > 1 µM | Cc1ncsc1-c1ccc(CNC(=O)[C@@H]2C[C@@H](O)CN2C(=O)[C@@H](NC(=O)CCN2CC(C3CN(C(=O)c4ccc(CCOc5cc(-c6ccccc6O)nnc5N)cc4)C3)C2)C(C)(C)C)cc1 [Compound 224, (2S,4R)-1-((S)-2-(3-(1′-(4-(2-((3-amino-6-(2-hydroxyphenyl)pyridazin-4-yl)oxy)ethyl)benzoyl)-[3,3′-biazetidin]-1-yl)propanamido)-3,3-dimethylbutanoyl)-4-hydroxy-N-(4-(4-methylthiazol-5-yl)benzyl)pyrrolidine-2-carboxamide] | C (“C” indicates maximum degradation <50%)

Row | Compound | DC50 (HiBit-BRG1) | Dmax (HiBit-BRG1) | DC50 (HiBiT-BRM) | BRM HiBit Degradation Maximum (%) (HiBiT-BRM)
11 | Nc1nnc(-c2ccccc2O)cc1N1CCN(C(=O)C2CC2CNC(=O)COc2cccc3c2C(=O)N(C2CCC(=O)NC2=O)C3=O)CC1 (stereo not shown) [Compound 77, N-[(2-[4-[3-amino-6-(2-hydroxyphenyl)pyridazin-4-yl]piperazine-1-carbonyl]cyclopropyl)methyl]-2-[[2-(2,6-dioxopiperidin-3-yl)-1,3-dioxoisoindol-4-yl]oxy]acetamide] | > 1 µM |  | > 1 µM | C (“C” indicates maximum degradation <50%)
